Key:
Assay type in all cases: in vivo, mice
LU-01-0030 xenograft = assay: second LU-01-0030 xenograft study, Compound 1 and radiation
Source text: In a second study with the LU-01-0030 xenograft model, 6-8 week old female BALB/c nude (Shanghai Sino-British SIPPR/BK Laboratory Animal Co., LTD.) mice were implanted subcutaneously with approximate 20-30 mm^3 LU-01-0030 tumor slices in the right flank. When the mean tumor volume reached approximately 182 mm^3, the animals were randomized into 6 treatment groups (n=8/group).
(§1) Compound 1 [((1R,2R,3S,4R)-2,3-dihydroxy-4-(2-(3-(trifluoromethylthio) ? phenyl)pyrazolo[1,5-a]pyrimidin-7-ylamino)cyclopentyl)methyl sulfamate] is formulated in 10% HPbCD in sterile water and administered intravenously on days 0, 3, 7, 10, 14, 17 in the LU-01-0266 and HN-13-0007 models and on days 0, 3, 8, 11, 15, 18 in the ST-02-0004 model and in the second study with the LU-01-0030 model. Compound 1 formulation was prepared weekly and stored at room temperature in the dark.
Beam-focused radiation was delivered using 4 Gray dosed on day 0 in the second study for the LU-01-0030 model.
(§2) Tumors were measured twice weekly using vernier calipers. Tumor volumes were calculated using the following formula: (0.5×[length×width^2]). Treatment groups and dosing/treatment schedules are indicated in Tables 1a, 2a, 3a, 4a, and 5a below. Tumor size and body weight are measured approximately twice a week for the duration of the study. Mice are euthanized when their tumor volume reached approximately 1000 mm^3. Tumor growth continued to be monitored after the dosing period in some studies. In Tables 1a, 2a, 3a, 4a, and 5a tumor volumes are shown for HN-13-0014 (day 21), LU-01-0030 (day 21), the second LU-01-0030 study (day 20), LU-01-0266 (day 20), ST-02-0004 (day 21) and FIN-13-0007 (day 24), respectively. Average tumor volume is reported as a function of time for selected groups of selected studies.
(§3) Measurements from day 0 to day 20, day 21 or day 24 are analyzed as specified in Tables below. All tumor volumes have a value of 1 added to them before log10 transformation. For each animal, the log tumor volume at day 0 is subtracted from the log tumor volume on the subsequent days. This difference vs. time is used to calculate an area under the curve (AUC) for each animal using the trapezoid rule. In instances when an animal in a treatment group is removed early from the study, the last observed tumor value is carried forward through all subsequent time points. The synergy score for the combination of agents A and B is defined as 100*(mean(AUCAB)−mean(AUCA)−mean(AUCB)+mean(AUCctl))/mean(AUCctl): where AUCAB, AUCA, AUCB, and AUCctl are the AUC values for animals in the combination group, the A group, the B group, and the control group, respectively. The standard error of the synergy score is computed based on the variation in the AUC values among the animals. […] If the P-value is above 0.05, then the combination is considered to be additive. If the P-value is below 0.05, and the synergy score is less than zero, then the combination is considered to be synergistic. If the P-value is below 0.05 and the synergy score was greater than zero, but the mean AUC for the combination was lower than the lowest mean AUC among the two single agent treatments, then the combination was sub-additive. If the P-value is below 0.05 and if the synergy score was greater than zero, and the mean AUC for the combination was greater than the mean AUC for at least one of the single agent treatments, then the combination was antagonistic.

ST-02-0004 xenograft = ST-02-0004 xenograft model, Compound 1 and radiation; settings: for Classification / Synergy score: through Day 21
Source text: (§4) The ST-02-0004 xenograft model is a human primary gastric cancer model. Approximately nine week old female BALB/c nude (Shanghai Sino-British SIPPR/BK Laboratory Animal Co., LTD.) mice were implanted subcutaneously with approximate 30 mm^3 ST-02-0004 tumor slices in the right flank. When the mean tumor volume reached approximately 162 mm^3, the animals were randomized into 6 treatment groups (n=8/group).
as §1
(§5) Beam-focused radiation was delivered using 2 Gray dosed on days 0, 1, 7, and 8 or on days 0, 3, 7, and 10 in the LU-01-0266 and HN-13-0007 models. In the ST-02-0004 model 2 Gray of radiation was delivered on days 0, 1, 3, and 8. A Rad Source RS-2000 X-ray irradiator was used for therapy (Rad Source). Before radiation, animals were anesthetized by i.p. injection using 1.0% sodium pentobarbital at 80 mg/kg (Vendor: Sigma). Focused radiation was applied to each mouse at 1 Gy/min.
as §2, §3

HN-13-0007 xenograft = HN-13-0007 xenograft model, Compound 1 and radiation; settings: for Classification / Synergy score: through Day 24
Source text: as §4, with “HN-13-0007” for “ST-02-0004”, “head and neck […]” for “gastric”, “130” for “162”, “10” for “6”
as §1, §5, §2, §3

[1] = 6.25 mg/kg Compound 1 + 4 Gy Radiation D0
[2] = 15 mg/kg Compound 1 + 4 Gy Radiation D0
[3] = 6.25 mg/kg compound 1 + 2 Gy Radiation D0, 1, 3, 8
[4] = 15 mg/kg compound 1 + 2 Gy Radiation D0, 1, 3, 8
[5] = 6.25 mg/kg Compound 1 + 2 Gy Radiation D0, 1, 7, 8
[6] = 6.25 mg/kg Compound 1 + 2 Gy Radiation D0, 3, 7, 10
[7] = 15 mg/kg Compound 1 + 2 Gy Radiation D0, 1, 7, 8
[8] = 15 mg/kg Compound 1 + 2 Gy Radiation D0, 3, 7, 10

NS(=O)(=O)OC[C@H]1C[C@@H](Nc2ccnc3cc(-c4cccc(SC(F)(F)F)c4)nn23)[C@H](O)[C@@H]1O [Compound 1, ((1R,2R,3S,4R)-2,3-dihydroxy-4-(2-(3-(trifluoromethylthio)phenyl)pyrazolo[1,5-a]pyrimidin-7-ylamino)cyclopentyl)methyl sulfamate]
Classification (LU-01-0030 xenograft; [1]): Additive (If the P-value is above 0.05, then the combination is considered to be additive)
Synergy score (LU-01-0030 xenograft; [1]): −74.5
Tumor Volume Day 20 (LU-01-0030 xenograft; 6.25 mg/kg Compound 1 IV D 0, 3, 8, 11, 15, 18 + 4 Gy Radiation Beam D 0): 83.8 mm^3
Tumor Volume Day 20 (LU-01-0030 xenograft; 6.25 mg/kg Compound 1 IV D 0, 3, 8, 11, 15, 18, single agent): 648.9 mm^3
Classification (LU-01-0030 xenograft; [2]): Additive (If the P-value is above 0.05, then the combination is considered to be additive)
Synergy score (LU-01-0030 xenograft; [2]): −10.3
Tumor Volume Day 20 (LU-01-0030 xenograft; 15 mg/kg Compound 1 IV D 0, 3, 8, 11, 15, 18 + 4 Gy Radiation Beam D 0): 2.04 mm^3
Tumor Volume Day 20 (LU-01-0030 xenograft; 15 mg/kg Compound 1 IV D 0, 3, 8, 11, 15, 18, single agent): 67.8 mm^3
combination effect (LU-01-0030 xenograft; Compound 1 with 4 Gy radiation): additive combination effect
Tumor Volume Day 21 (ST-02-0004 xenograft; 6.25 mg/kg compound 1 IV BIWx3 + 2 Gy Radiation Beam D 0, 1, 3, 8): 266.8 mm^3
Tumor Volume Day 21 (ST-02-0004 xenograft; 6.25 mg/kg compound 1 IV BIWx3 = D 0, 3, 8, 11, 15, 18, single agent): 697.1 mm^3
Tumor Volume Day 21 (ST-02-0004 xenograft; 15 mg/kg compound 1 IV BIWx3 + 2 Gy Radiation Beam D 0, 1, 3, 8): 178.2 mm^3
Tumor Volume Day 21 (ST-02-0004 xenograft; 15 mg/kg compound 1 IV BIWx3 = D 0, 3, 8, 11, 15, 18, single agent): 755.2 mm^3
combination effect (ST-02-0004 xenograft; Compound 1 at 6.25 mg/kg with 2 Gy of Radiation): additive combination effect
combination effect (ST-02-0004 xenograft; Compound 1 at 15 mg/kg with 2 Gy of Radiation): synergistic combination effect
anti-tumor activity compared to the vehicle control (ST-02-0004 xenograft; single agent, IV at 6.25 and 15 mg/kg for 3 weeks on Days 0, 3, 8, 11, 15 and 18): no significant anti-tumor activity
Classification (ST-02-0004 xenograft; [3]): Additive (If the P-value is above 0.05, then the combination is considered to be additive)
Synergy score (ST-02-0004 xenograft; [3]): 10
Classification (ST-02-0004 xenograft; [4]): Synergy (If the P-value is below 0.05, and the synergy score is less than zero, then the combination is considered to be synergistic)
Synergy score (ST-02-0004 xenograft; [4]): −49
Tumor Volume Day 24 (HN-13-0007 xenograft; 6.25 mg/kg Compound 1 IV BIWx3 + 2 Gy Radiation Beam D 0, 1, 7, 8): 318.8 mm^3
Tumor Volume Day 24 (HN-13-0007 xenograft; 6.25 mg/kg Compound 1 IV BIWx3 + 2 Gy Radiation Beam D 0, 3, 7, 10): 340 mm^3
Tumor Volume Day 24 (HN-13-0007 xenograft; 6.25 mg/kg Compound 1 IV BIWx3 = D 0, 3, 7, 10, 14, 17, single agent): 442.4 mm^3
Tumor Volume Day 24 (HN-13-0007 xenograft; 15 mg/kg Compound 1 IV BIWx3 + 2 Gy Radiation Beam D 0, 1, 7, 8): 358.3 mm^3
Tumor Volume Day 24 (HN-13-0007 xenograft; 15 mg/kg Compound 1 IV BIWx3 + 2 Gy Radiation Beam D 0, 3, 7, 10): 299.7 mm^3
Tumor Volume Day 24 (HN-13-0007 xenograft; 15 mg/kg Compound 1 IV BIWx3 = D 0, 3, 7, 10, 14, 17, single agent): 362.1 mm^3
tumor growth inhibition, single agent (HN-13-0007 xenograft; Compound 1 at 15 mg/kg as single agent): minimal tumor growth inhibition
combination effect (HN-13-0007 xenograft; Compound 1 with 2 Gy radiation): additive combination effect
anti-tumor activity compared to the vehicle control (HN-13-0007 xenograft; single agent, IV at 6.25 mg/kg for 3 weeks on Days 0, 3, 7, 10, 14, 17): no anti-tumor activity
Classification (HN-13-0007 xenograft; [5]): Additive (If the P-value is above 0.05, then the combination is considered to be additive)
Synergy score (HN-13-0007 xenograft; [5]): −20
Classification (HN-13-0007 xenograft; [6]): Additive (If the P-value is above 0.05, then the combination is considered to be additive)
Synergy score (HN-13-0007 xenograft; [6]): −24
Classification (HN-13-0007 xenograft; [7]): Additive (If the P-value is above 0.05, then the combination is considered to be additive)
Synergy score (HN-13-0007 xenograft; [7]): 24
Classification (HN-13-0007 xenograft; [8]): Additive (If the P-value is above 0.05, then the combination is considered to be additive)
Synergy score (HN-13-0007 xenograft; [8]): −13

Reference: patent publication US10335411B2, “Administration of ubiquitin-activating enzyme inhibitor and radiation” (Millennium Pharmaceuticals, Inc., priority 2014, dated 2019)
